How the values were obtained:
[1] = molecular target: T1, N-acyl amino acid racemase from A. TS-1-60 (Amycolatopsis sp, UniProt Q44244); experiment: Racemase activity of the N-acyl amino acid racemase from A. TS-1-60; type: biochemical, Amycolatopis sp. TS-1-60; details: N-carbamoyl-D-Met as substrate
T1 sequence (Q44244 1-368): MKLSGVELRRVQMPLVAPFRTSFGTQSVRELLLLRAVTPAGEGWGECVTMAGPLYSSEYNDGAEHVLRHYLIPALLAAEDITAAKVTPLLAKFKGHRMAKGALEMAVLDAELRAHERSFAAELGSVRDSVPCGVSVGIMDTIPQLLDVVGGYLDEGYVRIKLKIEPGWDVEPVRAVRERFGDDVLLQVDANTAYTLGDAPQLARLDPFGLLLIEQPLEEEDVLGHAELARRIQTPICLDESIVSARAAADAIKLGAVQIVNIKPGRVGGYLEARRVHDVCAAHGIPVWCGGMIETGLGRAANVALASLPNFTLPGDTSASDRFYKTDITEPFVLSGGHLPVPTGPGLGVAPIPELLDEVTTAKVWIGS
Excerpt: The N-acyl amino acid racemase from A. TS-1-60 with N-carbamoyl-D-Met as substrate has an activity of 100 mU/mg. This specific activity is thus 35% lower than that of the racemase from A. orientalis subsp. lurida.

[2] = test system: N-acetyl amino acid racemase from Amycolatopsis orientalis subsp. lurida; experiment: Detection of racemase activity of recombinant AAR (polarimetric racemization assay); type: biochemical; details: substrate 25 mM, Tris/HCl 50 mM pH 8.0, cobalt chloride 6 mM, approx 150 μg purified protein, 30° C., 3 to 12 hours, polarimeter λ=365 nm
Description: The substrate spectrum of the N-acetyl amino acid racemase from Amycolatopsis orientalis subsp. lurida was tested using the enzyme assay described below. The assay was composed of the following: [table] Enantiomerically pure amino acid derivatives were used in the test and the formation of the corresponding racemate was monitored in the polarimeter (Perkin-Elmer 241). Incubation took place at 30° C. (heated cell) for 3 to 12 hours. The measurements were taken at a wave length of λ=365 nm.

Compound	activity (specific activity) of the racemase from A. TS-1-60 [1] [mU/mg]	specific activity lower than that of the racemase from A. orientalis subsp. lurida ([1]; TS-1-60 racemase versus A. orientalis subsp. lurida racemase) [%]	Specific activity of the AAR [2] [mU/mg]
CSCC[C@@H](NC(N)=O)C(=O)O [N-Carbamoyl-D-Met]	100	35	155
NC(=O)N[C@H](Cc1ccccc1)C(=O)O [N-Carbamoyl-D-Phe]			20
CC(C)C[C@H](NC(N)=O)C(=O)O [N-Carbamoyl-L-Leu]			20
CSCC[C@H](NC(N)=O)C(=O)O [N-Carbamoyl-L-Met]			118
NC(=O)N[C@@H](Cc1ccc(O)cc1)C(=O)O [N-Carbamoyl-L-Tyr]			62
CC(C)[C@H](NC(N)=O)C(=O)O [N-Carbamoyl-L-Val]			20
N-Carbamoyl-L-Abs			15

— patent US6767725B2, “Acetyl amino acid racemase from amycolatopsis orientalis for racemizing carbamoyl amino acids” (Degussa AG, priority 2000, dated 2004)
